The source of these data is patent US9744175B2, “Compositions of combinations of non-covalent DNA binding agents and anti-cancer and/or anti-inflammatory agents and their use in disease treatment” (INDUS PHARMACEUTICALS, INC., priority 2012, dated 2017).

The test system of the assay is yeast rad57 mutation. Kind of assay: Alamar Blue cell survival assay in yeast cells. It is filed as cell-based. As to the method:
The cells are diluted 100-fold in yeast complete medium. 100 μL of diluted cells are seeded in 96 well plates with or without a non-covalent DNA binding compound and incubated for 24 hours at 30° C. The following day, an equal volume of yeast complete medium containing 1% alamar blue is added and incubated at 30° C. for two hours. Fluorescence intensity is measured in a fluorescent reader to calculate the inhibition effect of non-covalent DNA binding agents in mutant and wild type yeast cells.
Yeast cells that carry mutations in different genes involved in homologous recombination (rad 50, rad51, rad52, and rad57) and nucleotide excision/double strand repair (rad1) are grown to stationary culture overnight.
(In general: Resazurin is reduced to fluorescent resorufin, in cell work by metabolically active cells.)

In general, IC50 refers to the concentration that gives 50% inhibition. Consider `COc1cc2c(cc1OCCCC(=O)Nc1ccc3ccc4cccc5ccc1c3c45)N=C[C@@H]1CCCN1C2=O` [NSC 726260], for which the IC50 turned out to be 0.3 µM.
